Results from patent US20090252717A1, “Compositions and Methods for Treating Polyglutamine-Expansion Neurodegenerative Diseases” (priority 2006, published 2009).
Entries after “also recorded” stand apart in the source; their conditions may differ.

Tests used:
[1] = test system: polyQ-AR-induced inhibition of fast axonal transport; assay: Vesicle motility assay in isolated squid axoplasm, co-perfusion with polyQ-AR; format: cell-based, squid Loligo pealeii
Description: (§1) Recombinant Polypeptides. Wild-type androgen receptor and polyQ-AR polypeptides were produced by in vitro transcription/translation (TNT T7-Coupled Reticulocyte Lysate System; Promega, Madison, Wis.) according to manufacturer's protocols. Typically, 1.8 μg of plasmid was transcribed in 50 μl reaction mix. To assess protein levels, parallel reactions were performed incorporating ^35S-labeled methionine (Amersham) or quantitative immunoblots were performed. Protein concentrations were typically 0.2-0.5 nM. In vitro translated androgen receptor has been characterized and shown to be functional (Kuiper, et al. (1993) Biochem. J. 296(Pt 1):161-7). In vitro translation products were briefly centrifuged to eliminate translation machinery, and supernatants frozen in liquid N2 until used.
(§2) Squid Axoplasm. Isolated squid axoplasm represents a unique experimental system to evaluate axonal-specific effects and pathogenic mechanisms. This model was instrumental in the original discovery of kinesin-1 (Brady (1985) Nature 317:73-75, novel pathways for fast axonal transport (Morfini, et al. (2002) supra; Morfini, et al. (2004) supra), and axonal-specific phosphorylation events (Grant & Pant (2000) J. Neurocytol. 29:843-72). Bidirectional membrane-bound organelle movements are observed with properties unchanged from intact axons for hours after removal of plasma membrane (Brady, et al. (1982) Science 218:1129-1131). Video-enhanced microscopic techniques allow quantitative analysis of membrane-bound organelle movement in fast axonal transport. Typical kinesin-dependent transport rates are 1.5-2.0 μm/s, whereas retrograde, cytoplasmic dynein-dependent rates are 1-1.3 μm/s in perfused axoplasms. These rates are maintained with little (<10%) or no reduction for >1 hour after perfusion with control buffer (Brady, et al. (1982) supra). […]
(§3) Motility Studies in Isolated Axoplasm. […] Preparations were analyzed on a ZEISS AXIOMAT with a 100×, 1.3 n.a. objective, and DIC optics. […] Organelle velocities were measured with a Photonics Microscopy C2117 video manipulator (Hamamatsu).

[2] = test system: polyQ-Htt-induced inhibition of fast axonal transport; assay: Vesicle motility assay in isolated squid axoplasm, co-perfusion with polyQ-Htt; format: cell-based, squid Loligo pealeii; details: co-perfused with polyQ-Htt, concentration not given
Source text: (§4) Genes encoding human wild-type Huntingtin (Htt) (i.e., Q20, residues 1-548; Szebenyi, et al. (2003) supra) and polyQ-expanded Htt (i.e., Q46, residues 1-949; Qin, et al. (2004) J. Neurosci. 24(1):269-81) were cloned into the pcDNA.3 vector and produced by in vitro transcription/translation as described for the androgen receptor. Alternatively, shorter constructs (Htt exon1) were expressed in E. coli as GST-tagged proteins.
as §2, with “transport.” for “transport. Typical kinesin-dependent transport rates are 1.5-2.0 μm/s, whereas retrograde, cytoplasmic dynein-dependent rates are 1-1.3 μm/s in perfused axoplasms. These rates are maintained with little (<10%) or no reduction for >1 hour after perfusion with control buffer (Brady, et al. (1982) supra).”
Motility Studies in Isolated Axoplasm. […] Preparations were analyzed on a ZEISS AXIOMAT with a 100×, 1.3 n.a. objective, and DIC optics. […]

[3] = test system: neurofilament phosphorylation; assay: Neurofilament phosphorylation in squid axoplasm (immunoblot, SMI32); format: cell-based; details: axoplasm incubated with protein
Description: Phosphorylation Studies in Squid Axoplasm. Three to four axoplasms were triturated in KB buffer (KB: 10 mM HEPES pH 7.4, 10 mM MgCl2, 1 mM DTT) and aliquoted. Individual reactions with corresponding in vitro-translated androgen receptor constructs were started by adding radiolabeled ATP to 100 μM. Reactions were done in 50 μl, incubated for 20 minutes at room temperature and stopped with 50 μl of 2× sample buffer. Lysates were separated by SDS-PAGE and analyzed by autoradiography. For certain indicated assays, 2 axoplasms per tube were incubated in X/2 buffer for 50 minutes with corresponding in vitro-translated androgen receptor construct, then 50 μl of 2× sample buffer was added and samples analyzed by immunoblot.

[4] = test system: fast axonal transport; details: cited from earlier work
[5] = test system: kinesin-1; assay: Kinesin-1 ATPase assay; format: biochemical, rat; details: in vitro, up to equimolar levels of androgen receptor and kinesin-1
Description: Kinesin-1 ATPase Assays. Kinesin-1 basal and microtubule-activated ATPase activity was assayed according to known methods (Morfini, et al. (2002) supra; Tsai, et al. (2000) Mol. Biol. Cell 11:2161-2173). Briefly, purified rat brain kinesin and in vitro-translated androgen receptor constructs were incubated with or without TAXOL-stabilized MAP-free microtubules (1 mg/ml). Assays were started by addition of 1 mCi γ-^32P ATP (ICN Biochemicals, Costa Mesa, Calif.) and incubated for 25 minutes at 37° C. Reactions were stopped with 10% SDS and aliquots spotted on PEI-cellulose plates. Chromatograms were developed in 0.5 M LiCl/1 M formic acid and spots for ^32P and γ-^32P ATP counted to obtain percent of total ^32P recovered as free phosphate.

[6] = test system: fast axonal transport; assay: Vesicle motility assay in isolated squid axoplasm, perfusion of recombinant protein alone; format: cell-based, squid Loligo pealeii; details: protein alone
Description: as §1, §4
as §2, with “supra). The lack of permeability barriers allows perfusion of the axoplasm with a variety of effector molecules at known concentrations. Effectors of interest include nucleotides, pharmacological inhibitors, recombinant polypeptides, and antibodies.” for “supra).”
as §3

[7] = test system: wild-type androgen receptor SH-SY5Y cells; assay: Neurite outgrowth of differentiated SH-SY5Y cells expressing wild-type androgen receptor; format: cell-based, human; details: 10 μM
Description: (§5) SH-SY5Y Cell Culture and Pharmacological Inhibition. Androgen receptor constructs containing wild-type androgen receptor (Q20) and pathogenic androgen receptor (Q56) tracts were prepared and stably transfected into SH-SY5Y human neuroblastoma cells (Avila, et al. (2003) Exp. Biol. Med. (Maywood) 228:982-90). Wild-type and 902-6 cells (expressing both full-length polyQ-AR and a truncated N-terminal androgen receptor fragment (≈25 kD) that accumulated in cytoplasm) were grown and differentiated (Szebenyi, et al. (2003) supra). Cells were plated at densities of 10,000 cells/cm^2 on 10-cm tissue culture dishes for biochemical studies, and at 3000-5000 cells/cm^2 on 4-well tissue-tech chamber slides (Becton-Dickinson, Mountain View, Calif.) for immunocytochemistry and morphometric studies. For inhibitor studies, cells were differentiated with 10 μM retinoic acid in serum for 5-6 days, and then switched to serum-free medium supplemented with 25 ng/ml BDNF (Alomone Laboratories, Jerusalem, Israel) with or without SB203580 inhibitor. Cell morphologies were evaluated after 3 days in BDNF±SB203580 (Szebenyi, et al. (2003) supra).

[8] = test system: p38α, p38β, JNK2, and JNK3; details: cited from earlier work
[9] = test system: 902-6 SH-SY5Y cells (polyQ-AR); assay: Neurite outgrowth of differentiated SH-SY5Y cells expressing polyQ-AR; format: cell-based, human
Description: as §5

[10] = co-perfused with polyQ-AR, concentration not given

Row | Compound | effect on polyQ-AR-induced inhibition of fast axonal transport [1, 10] | effect on polyQ-Htt-induced inhibition of fast axonal transport [2] | effect on basal and microtubule-activated ATPase activity of kinesin-1 [5] | mean fast axonal transport rate ([6]; 20-30 minutes) | mean fast axonal transport rate ([6]; 40-50 minutes) | also measured
1 | CCSCc1ccc2c(c1)c1c3c(c4c5cc(CSCC)ccc5n5c4c1n2[C@H]1C[C@](O)(C(=O)OC)[C@]5(C)O1)CNC3=O [CEP-1347] | prevented the effects of polyQ-Htt and polyQ-AR on fast axonal transport | prevented the effects of polyQ-Htt and polyQ-AR on fast axonal transport | – | – | – | –
2 | C=C1[C@@H](O)[C@@H]2O[C@]3(CC[C@H](/C=C/[C@@H](C)[C@@H]4CC(C)=C[C@@]5(O[C@H](C[C@@](C)(O)C(=O)O)CC[C@H]5O)O4)O3)CC[C@H]2O[C@@H]1[C@@H](O)C[C@H](C)[C@H]1O[C@@]2(CCCCO2)CC[C@H]1C [okadaic acid] | failed to prevent polyQ-AR-induced fast axonal transport inhibition | – | – | – | – | –
3 | polyQ-AR: polyglutamine-expanded androgen receptor (Q56) produced by in vitro transcription/translation | – | – | failed to affect either basal or microtubule-activated ATPase activity of kinesin-1 | 1.25±0.03 μm/sec | 1.08±0.02 μm/sec | SMI32 immunoreactivity [3]: reduced; level that inhibits fast axonal transport [4]: < 1 nM
4 | wild-type androgen receptor: wild-type androgen receptor (Q20) produced by in vitro transcription/translation | – | – | not affected | 1.71±0.03 μm/sec | 1.77±0.04 μm/sec | –
5 | C[S+]([O-])c1ccc(-c2nc(-c3ccncc3)c(-c3ccc(F)cc3)[nH]2)cc1 (stereo not shown) [SB203580] | – | prevented the effects of polyQ-Htt on fast axonal transport | – | – | – | neurite outgrowth [7]: increasing neurite outgrowth; kinases inhibited [8]: inhibits p38α, p38β, JNK2, and JNK3; effect on polyQ-AR-induced inhibition of fast axonal transport ([1]; 10 μM co-perfused with polyQ-AR): completely blocked the inhibition of fast axonal transport in both anterograde and retrograde directions; proportion of cells with long neurites (>80 μm in length) ([9]; 10 μM or 20 μM): dramatic and dose-dependent increase in the proportion of cells that extended long neurites; also recorded: significant increase in the number of polyQ-AR cells extending long neurites; neurite length / outgrowth ([9]; 10 μM, 3 days BDNF): increasing neurite outgrowth; also recorded: increased in length; neurite length / morphology distribution ([9]; 20 μM, 3 days BDNF): nearly indistinguishable between wild-type and 902-6 cells; also recorded: indistinguishable from untreated wild-type androgen receptor cells; effect on inhibition of neurite outgrowth by polyQ-AR ([9]; added to culture media, 3 days BDNF): overcame inhibition of neurite outgrowth by polyQ-AR; also recorded: reverses inhibition of neurite formation by polyQ-AR
